The results in this text go back to patent US9540343B2 (Gilead Sciences, Inc., priority 2011, dated 2017).

One series in a line: in vitro. In short, it runs like this:
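Cytoprotection read-out: CellTiter-Glo chemiluminescence after 5 days at 37 °C of HIV-IIIb-infected MT-4 cells (m.o.i. 0.003) with compound in 10-point 3-fold dilutions, quadruplicate, 10% FBS. Cytotoxicity (CC50) measured identically without virus.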

The test system of the next series is HIV-IIIb. Briefly: Test A: Antiviral assay in MT4 cells. Format: cell-based, HIV-1. Conditions: Human immunodeficiency virus 1, IIIB, MT4, 120 h, read-out: % inhibition at 2 μM, percent inhibition of virus-induced cell killing, from dose response curve at 2 uM drug; MT-4 cells infected with HIV-IIIb, 5 days, CellTiter-Glo.
The mark [1] stands for this setting: human, uninfected MT-4 cells, CC50 (nM), same protocol as Test A, CellTiter-Glo.

On to `NC(=O)c1cc(-c2cccnc2[C@H](Cc2cc(F)cc(F)c2)NC(=O)Cn2cc(C(F)(F)F)cn2)ccc1F` [Example 570, (S)-5-(2-(2-(3,5-difluorophenyl)-1-(2-(4-(trifluoromethyl)-1H-pyrazol-1-yl)acetamido)ethyl)pyridin-3-yl)-2-fluorobenzamide], for which, in “in vitro” (setting [1]), the half-maximal cytotoxic concentration (CC50) at 5 days was above 53200 nM. The inhibition at 2 µM in the series with HIV-IIIb was determined as 5%.

In “in vitro” (human, CC50 (nM), uninfected MT-4 cells, same protocol as Test A, CellTiter-Glo), `NC(=O)c1cc(-c2cccnc2[C@H](Cc2cc(F)cc(F)c2)NC(=O)Cn2c3c(c4ccccc42)C(=O)CCC3)ccc1F` [Example 574D, (S)-5-(2-(2-(3,5-difluorophenyl)-1-(2-(4-oxo-3,4-dihydro-1H-carbazol-9(2H)-yl)acetamido)ethyl)pyridin-3-yl)-2-fluorobenzamide] registered a CC50 at 5 days of 52500 nM. Besides, the inhibition at 2 µM in the series with HIV-IIIb was 24%.

`Cc1cc2cc(F)ccc2n1CC(=O)N[C@@H](Cc1cc(F)cc(F)c1)c1ncccc1-c1cccc(C(N)=O)c1` [Example 575B, (S)-3-(2-(2-(3,5-difluorophenyl)-1-(2-(5-fluoro-2-methyl-1H-indol-1-yl)acetamido)ethyl)pyridin-3-yl)benzamide] returned a CC50 at 5 days in “in vitro” (setting [1]) of 17400 nM. The inhibition at 2 µM with HIV-IIIb came to 14%.

In turn, `COC1CN(C(=O)c2cc(C(C)C)n(CC(=O)N[C@@H](Cc3cc(F)cc(F)c3)c3ncccc3-c3ccc(F)c(C(N)=O)c3)n2)C1` [Example 576B, (S)-5-(2-(2-(3,5-difluorophenyl)-1-(2-(5-isopropyl-3-(3-methoxyazetidine-1-carbonyl)-1H-pyrazol-1-yl)acetamido)ethyl)pyridin-3-yl)-2-fluorobenzamide] yielded a CC50 at 5 days in “in vitro” (setting [1]) above 53200 nM. Also, the inhibition at 2 µM with HIV-IIIb was determined as 2%.

Molecule `NC(=O)c1cc(-c2cccnc2[C@H](Cc2cc(F)cc(F)c2)NC(=O)Cn2c(CN3CCOCC3)nc3ccccc32)ccc1F` [Example 577, (S)-5-(2-(2-(3,5-difluorophenyl)-1-(2-(2-(morpholinomethyl)-1H-benzo[d]imidazol-1-yl)acetamido)ethyl)pyridin-3-yl)-2-fluorobenzamide] gave a CC50 at 5 days in “in vitro” (setting [1]) above 53200 nM. Moreover, the inhibition at 2 µM in the series on HIV-IIIb is 20%.

As to `NC(=O)c1cc(-c2cccnc2[C@H](Cc2cc(F)cc(F)c2)NC(=O)C(CO)c2ccccc2)ccc1F` (stereo partly drawn) [Example 578, 5-(2-((1S)-2-(3,5-difluorophenyl)-1-(3-hydroxy-2-phenylpropanamido)ethyl)pyridin-3-yl)-2-fluorobenzamide], the cytotoxic concentration (CC50) at 5 days in the series “in vitro” (setting [1]) was above 53200 nM. In addition, in the series on HIV-IIIb, the inhibition at 2 µM came out at 15%.

The molecule `COC1CN(C(=O)Cc2c(C)n(CC(=O)N[C@@H](Cc3cc(F)cc(F)c3)c3ncccc3-c3ccc(F)c(C(N)=O)c3)c3ccccc23)C1` [Example 579D, (S)-5-(2-(2-(3,5-difluorophenyl)-1-(2-(3-(2-(3-methoxyazetidin-1-yl)-2-oxoethyl)-2-methyl-1H-indol-1-yl)acetamido)ethyl)pyridin-3-yl)-2-fluorobenzamide] showed a CC50 at 5 days in the series “in vitro” (setting [1]) above 53200 nM. In addition, the inhibition at 2 µM with HIV-IIIb came out at 18%.

Consider `NS(=O)(=O)c1cc(-c2cccnc2[C@H](Cc2cc(F)cc(F)c2)NC(=O)Cc2c[nH]c3ccc(F)cc23)ccc1F` [Example 580F, (S)—N-(2-(3,5-difluorophenyl)-1-(3-(4-fluoro-3-sulfamoylphenyl)pyridin-2-yl)ethyl)-2-(5-fluoro-1H-indol-3-yl)acetamide], for which the midpoint of cytotoxicity in the series “in vitro” (setting [1]), the CC50 at 5 days, lay at 32600 nM. Besides, the inhibition at 2 µM in the series with HIV-IIIb is 95%.

Consider `Cc1cc2cn(CC(=O)N[C@@H](Cc3cc(F)cc(F)c3)c3ncccc3-c3ccc(F)c(C(N)=O)c3)nc2cc1C` [Example 583, (S)-5-(2-(2-(3,5-difluorophenyl)-1-(2-(5,6-dimethyl-2H-indazol-2-yl)acetamido)ethyl)pyridin-3-yl)-2-fluorobenzamide], for which the CC50 at 5 days in the series “in vitro” (setting [1]) was 23200 nM. The inhibition at 2 µM in the series with HIV-IIIb is 28%.

In the series “in vitro” (setting [1]), `NCc1ccc2c(CC(=O)N[C@@H](Cc3cc(F)cc(F)c3)c3ncccc3-c3cccc(C(N)=O)c3)c[nH]c2c1` [Example 584, (S)-3-(2-(1-(2-(6-(aminomethyl)-1H-indol-3-yl)acetamido)-2-(3,5-difluorophenyl)ethyl)pyridin-3-yl)benzamide] yielded a CC50 at 5 days of 7250 nM. The inhibition at 2 µM with HIV-IIIb came to 93%.

Molecule `NC(=O)c1cc(-c2cccnc2[C@H](Cc2cc(F)cc(F)c2)NC(=O)Cn2ccc3cc(Cl)ccc32)ccc1F` [Example 585, (S)-5-(2-(1-(2-(5-chloro-1H-indol-1-yl)acetamido)-2-(3,5-difluorophenyl)ethyl)pyridin-3-yl)-2-fluorobenzamide] came in with a CC50 at 5 days in “in vitro” (setting [1]) of 13700 nM. In addition, the inhibition at 2 µM in the series on HIV-IIIb came out at 58%.

Consider `CCC(C(=O)N[C@@H](Cc1cc(F)cc(F)c1)c1ncccc1-c1ccc(F)c(C(N)=O)c1)n1cnc2cc(C)c(C)cc21` (stereo partly drawn) [Example 587C, 5-(2-((1S)-2-(3,5-difluorophenyl)-1-(2-(5,6-dimethyl-1H-benzo[d]imidazol-1-yl)butanamido)ethyl)pyridin-3-yl)-2-fluorobenzamide], for which the CC50 at 5 days in the series “in vitro” (setting [1]) worked out at 23000 nM. Moreover, in the series on HIV-IIIb, the inhibition at 2 µM worked out at 93%.

On to `NC(=O)c1cc(-c2cccnc2[C@H](Cc2cc(F)cc(F)c2)NC(=O)Cn2ncc3ccc(O)cc32)ccc1F` [Example 588, (S)-5-(2-(2-(3,5-difluorophenyl)-1-(2-(6-hydroxy-1H-indazol-1-yl)acetamido)ethyl)pyridin-3-yl)-2-fluorobenzamide], for which, in “in vitro” (setting [1]), half-maximal cytotoxicity (CC50 at 5 days) was put at 21500 nM. In addition, the inhibition at 2 µM in the series with HIV-IIIb worked out at 2%.

In turn, `NC(=O)c1cc(-c2cccnc2[C@H](Cc2cc(F)cc(F)c2)NC(=O)Cn2ccc3ccc(C(F)(F)F)cc32)ccc1F` [Example 591, (S)-5-(2-(2-(3,5-difluorophenyl)-1-(2-(6-(trifluoromethyl)-1H-indol-1-yl)acetamido)ethyl)pyridin-3-yl)-2-fluorobenzamide] returned a CC50 at 5 days in the series “in vitro” (setting [1]) of 14200 nM. In addition, the inhibition at 2 µM with HIV-IIIb was 15%.

`NC(=O)c1cc(-c2cccnc2[C@H](Cc2cc(F)cc(F)c2)NC(=O)Cc2ccccc2)ccc1F` [Example 592]: the CC50 at 5 days in the series “in vitro” (setting [1]) was above 53200 nM. Also, in the series with HIV-IIIb, the inhibition at 2 µM worked out at 8%.

The molecule `Cc1cc2[nH]cc(CC(=O)N[C@@H](Cc3cc(F)cc(F)c3)c3ncccc3-c3cccc(C(N)=O)c3)c2cc1O` [Example 593, (S)-3-(2-(2-(3,5-difluorophenyl)-1-(2-(5-hydroxy-6-methyl-1H-indol-3-yl)acetamido)ethyl)pyridin-3-yl)benzamide] yielded a CC50 at 5 days in “in vitro” (setting [1]) above 53000 nM. In addition, the inhibition at 2 µM with HIV-IIIb is 52%.

As to `NC(=O)c1cccc(-c2cccnc2[C@H](Cc2cc(F)cc(F)c2)NC(=O)Cn2ccc3cc(F)c(F)cc32)c1` [Example 594B, (S)-3-(2-(1-(2-(5,6-difluoro-1H-indol-1-yl)acetamido)-2-(3,5-difluorophenyl)ethyl)pyridin-3-yl)benzamide], the midpoint of cytotoxicity in the series “in vitro” (setting [1]), the CC50 at 5 days, lay at 13400 nM. For the same molecule, the inhibition at 2 µM with HIV-IIIb amounted to 12%.

`O=C(Cn1nc(C(F)(F)F)c2c1CC1CC21)N[C@@H](Cc1cc(F)cc(F)c1)c1ncccc1-c1cnc2[nH]ccc2c1` (stereo partly drawn) [Example 595, N—((S)-1-(3-(1H-pyrrolo[2,3-b]pyridin-5-yl)pyridin-2-yl)-2-(3,5-difluorophenyl)ethyl)-2-(3-(trifluoromethyl)-3b,4,4a,5-tetrahydro-1H-cyclopropa[3,4]cyclopenta[1,2-c]pyrazol-1-yl)acetamide] registered a CC50 at 5 days in “in vitro” (setting [1]) of 12700 nM. For the same molecule, the inhibition at 2 µM in the series with HIV-IIIb stood at 99%.
